Data as given in PMC4226810 (Journal of pharmacokinetics and pharmacodynamics, 2014).
Like-named read-outs stand apart in the source and are kept apart here.

Columns and labels:
[1] = tested on: STAT5^Y694 phosphorylation (biomarker of FLT3^ITD activity); test: Subcutaneous MOLM13 tumor cellular signaling: pSTAT5; assay type: in vivo, mouse; conditions: for inhibition of phosphorylation of STAT5 at the time of maximum effect: subcutaneous tumor
[2] = Plasma pharmacokinetics after oral administration in MOLM13 xenograft mice; assay type: in vivo, mouse; conditions: for Km: CrTac:NCR-Foxn1nu nude; for Vmax: Michaelis-Menten elimination; for Vmax / V: one compartment model
[3] = tested on: Rb^S780 phosphorylation (biomarker of CDK4/6 activity); test: Subcutaneous MOLM13 tumor cellular signaling: pRb; conditions: 50 mg/Kg QD multiple-day dosing, at 240 hr; baseline pRb(0) 82,600
[4] = tested on: STAT5^Y694 phosphorylation; test: Orthotopic MOLM13-Luc tumor cellular signaling: pSTAT5; assay type: in vivo, mouse; conditions: model estimate (%RSE)
[5] = tested on: MOLM13-Luc tumors; test: Orthotopic tumor burden; assay type: in vivo, mouse; conditions: population mean
[6] = Fraction unbound by modified ultra-filtration method; assay type: in vitro ADME; conditions: plasma
[7] = absorption rate constant fixed based on previous studies ref 21, cited from earlier work

Structure (SMILES): C[C@H]1CC[C@H](n2c3cnccc3c3cnc(Nc4ccc5c(n4)CCN(C(=O)CO)C5)nc32)CC1 [AMG925]
- ratio of IC50 on pSTAT5, subcutaneous xenograft over orthotopic xenograft ([1]; 27.7 nM vs 6.08 nM): 4 fold
- measured value of pSTAT5 (mean+/−sd) ([1]; 50 mg/Kg QD multiple-day dosing, at 240 hr, baseline pSTAT5(0) 18,000): 17020+/−1133
- inhibition of phosphorylation of STAT5 at the time of maximum effect ([1]; single dose 150mg/kg oral): almost completely inhibit
- Km ([2]; mouse, plasma, oral): 0.0945 µM
- Vmax ([2]; estimate (%RSE)): 4.16 (3.1) nmol/h
- ka ([2]; absorption rate constant, estimate (%RSE)): 1.00 (20) h^−1
- V ([2]; estimate (%RSE)): 0.109 (7.4) L
- measured value of pRb (mean+/−sd) [3]: 72870+/−1247
- Hill coefficient of pSTAT5 inhibition (HAMG) [4]: 1.92 (4.9)
- HR Hill coefficient ([5]; pRb term of orthotopic tumor burden model): 14.9
- HS Hill coefficient ([5]; pSTAT5 term of orthotopic tumor burden model): 15.1

Structure (SMILES): CC(C)(C)c1cc(NC(=O)Nc2ccc(-c3cn4c(n3)sc3cc(OCCN5CCOCC5)ccc34)cc2)no1 [AC220, quizartinib]
- k el ([2]; CrTac:NCR-Foxn1^nu nude, mouse, plasma, oral): 5.31e-05 s⁻¹
- V ([2]; estimate (%RSE)): 0.0964 (10) L
- fraction unbound [6]: 0.0107

Structure (SMILES): CNC(=O)c1cc(Oc2ccc(NC(=O)Nc3ccc(Cl)c(C(F)(F)F)c3)cc2)ccn1 [sorafenib]
- inhibition of phosphorylation of STAT5 at the time of maximum effect ([1]; single dose 10mg/kg oral): almost completely inhibit
- ratio of IC50 for pSTAT5 inhibition to IC50 for pRb inhibition ([1]; subcutaneous tumor signaling model): 17 fold
- ka (Fixed) [7]: 3 h⁻¹
- ka (Fixed) ([7]; listed as Sorafenib): 3 (Fixed) h^−1
- Km ([2]; mouse, plasma, oral): 0.00985 µM
- Vmax ([2]; estimate (%RSE)): 0.0736 (12) nmol/h
- V ([2]; estimate (%RSE)): 0.0247 (4.4) L
